{
  "source": "patent US20020183205A1",
  "about": "“Use of alpha2-adrenergic receptor agonists and adrenergic inhibitors in reducing defoliation” (priority 2001, published 2002)",
  "assay_type_in_all_cases": "in vivo",
  "key": {"[1]": {"tested_on": "calamondin (Citrus madurensis)", "experiment": "Fruit detachment force (FDF) of calamondin after canopy spray with agonists alone or in combination with Ethrel", "conditions": "5 days after application", "experimental": "(§1) A solution of an α2-adrenergic agonist was prepared. The solution contained 0.25 to 2 mM of agonist dissolved in water containing an appropriate surfactant. Ethrel® (2-chloroethyl phosphonic acid), an abscission agent, was added at a concentration that causes fruit loosening (in the case of citrus, 100 to 400 mg/L, depending on the variety). The solution was sprayed onto a tree canopy until “run-off,” typically about 2.5 liters per 15 foot tree. […] Under field conditions the canopies were not sprayed with the agonist-containing solutions if rainfall was anticipated within 24 hours. A positive control, containing a suitable concentration of Ethrel® or other abscission agent, as well as an agonist and surfactant control were sprayed on separate canopies. After several days, usually 3 to 10, differences in leaf drop were measured by counting or weighing dropped leaves. Fruit detachment force (FDF, a measurement defined as the force required to remove fruit from the tree stem) was measured in all treatments.\n(§2) Kinetic® was used as a surfactant. Leaf drop data are leaf loss means of 3 branches times 10 trees, 7 days after application. FDF data are means of 5 fruit times 10 trees, 5 days after application."}, "[2]": {"tested_on": "calamondin (Citrus madurensis)", "experiment": "Leaf drop of calamondin after canopy spray with agonists alone or in combination with Ethrel", "conditions": "7 days after application", "experimental": "as §1, §2"}, "[3]": {"tested_on": "Valencia orange (Citrus sinensis)", "experiment": "Leaf drop of Valencia orange, clonidine alone or in combination with Ethrel", "conditions": "7 days after application", "experimental": "as §1\nKinetic® was used as a surfactant. Data are the leaf loss means of 3 branches times 5 trees, 7 days after application."}, "Valencia orange": {"tested_on": "Valencia orange", "experiment": "Leaf drop of Valencia orange, Ethrel, coronatine, coronatine+guanfacine", "conditions": "10 days after application", "experimental": "The effect of Ethrel, coronatine, coronatine+guanfacine, and adjuvant alone on % cumulative leaf drop in Valencia orange was tested. The data reported in Table 3 are means of 3 branches times 5 trees, 10 days after application."}, "[4]": {"conditions": "agonist 1 mM + Ethrel 400 mg/L, Kinetic surfactant"}, "[5]": {"conditions": "agonist 1 mM alone, Kinetic surfactant"}, "[6]": {"conditions": "Ethrel 400 mg/L alone (positive control)"}, "[7]": {"conditions": "agonist 0.5 mM + Ethrel 400 mg/L, Kinetic surfactant"}, "[8]": {"conditions": "agonist 0.5 mM alone, Kinetic surfactant"}},
  "data": [
    {"smiles": "Clc1cccc(Cl)c1N=C1NCCN1", "note": "[Clonidine, clonidine]", "values": [
      {"measurement": "% Reduction in FDF", "setting": "[1]; [4]", "value": 40.5, "unit": "%"},
      {"measurement": "% Reduction in FDF", "setting": "[1]; [5]", "value": 0.5, "unit": "%"},
      {"measurement": "% Cumulative Leaf Drop", "setting": "[2]; [4]", "value": 13.4, "unit": "%"},
      {"measurement": "% Cumulative Leaf Drop", "setting": "[2]; [5]", "value": 5.8, "unit": "%"},
      {"measurement": "% Cumulative Leaf Drop", "setting": "[3]; 1 mM clonidine + Ethrel 100 mg/L", "value": 6.1, "unit": "%"},
      {"measurement": "% Cumulative Leaf Drop", "setting": "[3]; 1 mM clonidine + Ethrel 200 mg/L", "value": 14.3, "unit": "%"},
      {"measurement": "% Cumulative Leaf Drop", "setting": "[3]; 1 mM clonidine alone", "value": 2.7, "unit": "%"},
      {"measurement": "% Cumulative Leaf Drop", "setting": "[3]; 2 mM clonidine + Ethrel 100 mg/L", "value": 7.0, "unit": "%"},
      {"measurement": "% Cumulative Leaf Drop", "setting": "[3]; 2 mM clonidine + Ethrel 200 mg/L", "value": 15.1, "unit": "%"},
      {"measurement": "% Cumulative Leaf Drop", "setting": "[3]; 2 mM clonidine alone", "value": 3.2, "unit": "%"}
    ]},
    {"smiles": "O=P(O)(O)CCCl", "note": "[Ethrel ®, 2-chloroethyl phosphonic acid]", "values": [
      {"measurement": "% Reduction in FDF", "setting": "[1]; [6]", "value": 41.6, "unit": "%"},
      {"measurement": "% Cumulative Leaf Drop", "setting": "[2]; [6]", "value": 68.3, "unit": "%"},
      {"measurement": "% Cumulative Leaf Drop", "setting": "Valencia orange; Ethrel 200 mg/L alone", "value": 49.23, "unit": "%"},
      {"measurement": "% Cumulative Leaf Drop", "setting": "[3]; Ethrel 100 mg/L alone", "value": 19.1, "unit": "%"},
      {"measurement": "% Cumulative Leaf Drop", "setting": "[3]; Ethrel 200 mg/L alone", "value": 43.8, "unit": "%"}
    ]},
    {"smiles": "N=C(N)N/N=C/c1c(Cl)cccc1Cl", "note": "[Guanabenz, guanabenz]", "values": [
      {"measurement": "% Reduction in FDF", "setting": "[1]; [4]", "value": 34.6, "unit": "%"},
      {"measurement": "% Reduction in FDF", "setting": "[1]; [5]", "value": 1.0, "unit": "%"},
      {"measurement": "% Cumulative Leaf Drop", "setting": "[2]; [4]", "value": 14.1, "unit": "%"},
      {"measurement": "% Cumulative Leaf Drop", "setting": "[2]; [5]", "value": 5.9, "unit": "%"}
    ]},
    {"smiles": "N=C(N)NC(=O)Cc1c(Cl)cccc1Cl", "note": "[Guanafacine, guanfacine]", "values": [
      {"measurement": "% Reduction in FDF", "setting": "[1]; [4]", "value": 34.8, "unit": "%"},
      {"measurement": "% Reduction in FDF", "setting": "[1]; [5]", "value": 1.0, "unit": "%"},
      {"measurement": "% Cumulative Leaf Drop", "setting": "[2]; [4]", "value": 4.8, "unit": "%"},
      {"measurement": "% Cumulative Leaf Drop", "setting": "[2]; [5]", "value": 6.5, "unit": "%"},
      {"measurement": "% Cumulative Leaf Drop", "setting": "Valencia orange; 2 mM guanfacine + coronatine 200 mg/L", "value": 3.07, "unit": "%"}
    ]},
    {"smiles": "Brc1c(NC2=NCCN2)ccc2nccnc12", "note": "[UK14,304, Brimonidine]", "values": [
      {"measurement": "% Reduction in FDF", "setting": "[1]; [7]", "value": 33.4, "unit": "%"},
      {"measurement": "% Reduction in FDF", "setting": "[1]; [8]", "value": 1.2, "unit": "%"},
      {"measurement": "% Cumulative Leaf Drop", "setting": "[2]; [7]", "value": 15.6, "unit": "%"},
      {"measurement": "% Cumulative Leaf Drop", "setting": "[2]; [8]", "value": 6.0, "unit": "%"}
    ]},
    {"smiles": "CC[C@H]1C=C(C(=O)N[C@@]2(C(=O)O)C[C@@H]2CC)[C@H]2CCC(=O)[C@H]2C1", "note": "[coronatine]", "values": [
      {"measurement": "% Cumulative Leaf Drop", "setting": "Valencia orange; coronatine 200 mg/L alone", "value": 12.56, "unit": "%"}
    ]}
  ]
}
